Data published in PMC3767324, “Synthesis, Characterization, and BSA Binding Studies of Some New Benzamides Related to Schiff Base” (ISRN Organic Chemistry, 2013).
Values after ≈ are worked out from the molar mass of the structure shown. Values joined by “and” are separate entries in the source; they are usually repeats but may differ in a detail not shown here. Identical values can stand only once.

Columns and labels:
A. niger [1] = assay: agar disc diffusion, zone of inhibition; format: cell-based; conditions: Aspergillus niger, 48 h
Protocol: [The procedure below names another organism; the source lists this organism under the same test.] (§1) The in vitro antimicrobial screening effects of the compounds (3 and 5a–j) were individually tested against a panel of bacteria and fungi including Staphylococcus aureus (NCIM 5021), Bacillus subtilis (NCIM 2999), Pseudomonas aeruginosa (NCIM 5029), Escherichia coli (NCIM 2574), Candida. albicans (NCIM 3471), and Aspergillus flavus (NCIM 524). Microbial strains were cultured overnight at 37°C in nutrient and potato dextrose agar medium. All the pure microbial strains were obtained from National Chemical Laboratory (NCL), Pune, India.
(§2) The antibacterial activity of compounds was determined by agar disc diffusion method. Briefly, a suspension of tested bacterial strains was spread on the nutrient agar medium and potato dextrose agar for fungi. The discs (6 mm in diameter) impregnated with test chemicals each dissolved in concentration (100 μg/mL in DMSO) were placed on the inoculated agar and these plates were kept at 4°C for 2 h. The plate was incubated at 37°C for 24 h in case of bacteria and 48 h at 28°C in case of fungi. streptomycin (10 μg/disc) and fluconazole (10 μg/disc) were used as the standards for antibacterial and antifungal activity, respectively. All the samples were performed in triplicate and the zone of inhibition was measured in millimeters.

[2] = system: Aspergillus flavus (NCIM 524); assay: agar disc diffusion, zone of inhibition; format: cell-based; conditions: Aspergillus flavus, NCIM524, 48 h
Protocol: as §1, §2

[3] = system: Bacillus subtilis (NCIM 2999); assay: agar disc diffusion, zone of inhibition; format: cell-based; conditions: Bacillus subtilis, NCIM2999, 24 h
Protocol: as §1, §2

[4] = system: Escherichia coli (NCIM 2574); assay: agar disc diffusion, zone of inhibition; format: cell-based; conditions: Escherichia coli, NCIM2574, 24 h
Protocol: as §1, §2

[5] = system: Pseudomonas aeruginosa (NCIM 5029); assay: agar disc diffusion, zone of inhibition; format: cell-based; conditions: Pseudomonas aeruginosa, NCIM5029, 24 h
Protocol: as §1, §2

[6] = system: Staphylococcus aureus (NCIM 5021); assay: agar disc diffusion, zone of inhibition; format: cell-based; conditions: Staphylococcus aureus, NCIM5021, 24 h
Protocol: as §1, §2

A. niger [7] = assay: minimum inhibitory concentration by dilution method; format: cell-based
Protocol: [The procedure below names another organism; the source lists this organism under the same test.] as §1
(§3) The minimum inhibitory concentration of the synthesized compounds was determined by dilution method. The compounds were dissolved and then diluted using DMSO; two-fold serial concentrations of the compounds were employed to determine the MIC. In this method, the test concentrations of chemically synthesized compounds were made from 5 to 125 μg/mL.

[8] = system: Aspergillus flavus (NCIM 524); assay: as above; format: cell-based; conditions: Aspergillus flavus, NCIM524
Protocol: as §1, §3

[9] = system: Bacillus subtilis (NCIM 2999); assay: as above; format: cell-based; conditions: Bacillus subtilis, NCIM2999
Protocol: as §1, §3

[10] = system: Escherichia coli (NCIM 2574); assay: as above; format: cell-based; conditions: Escherichia coli, NCIM2574
Protocol: as §1, §3

[11] = system: Pseudomonas aeruginosa (NCIM 5029); assay: as above; format: cell-based; conditions: Pseudomonas aeruginosa, NCIM5029
Protocol: as §1, §3

[12] = system: Staphylococcus aureus (NCIM 5021); assay: as above; format: cell-based
Protocol: as §1, §3

[13] = DPPH free radical scavenging activity; conditions: DPPH 0.1 mM, absorbance at 517 nm; triplicate, mean ± SD
Protocol: The capacity to scavenge the stable free radical 2,2-diphenyl-1-picrylhydrazyl (DPPH) was monitored according to the Blois method. The test samples (10–100 μL) were mixed with 1 mL of DPPH (0.1 mM) solution and filled up with methanol to a final volume of 4 mL. Absorbance of the resulting solution was measured at 517 nm in a visible spectrophotometer (Model 166, Systronics, India). The free radical scavenging rate of the reaction solution was calculated as a percentage (%) of DPPH decolouration using the equation (1) I(%)=(Ablank−Asample/Ablank)×100, where A blank is the absorbance of the control reaction mixture excluding the test compounds, and A sample is the absorbance of the test compounds. Radical scavenging potential was expressed as IC50 value, which represents the sample concentration at which 50% of the DPPH radicals were scavenged. Tests were carried out in triplicate and the results were expressed as mean values ± standard deviations.
DPPH radical scavenging activity evaluation is a standard assay in antioxidant activity studies and offers a rapid technique for screening the radical scavenging activity of specific compounds [24]. The free radical scavenging activity of newly synthesized compounds was tested by their ability to bleach the stable radical DPPH. The activity was monitored by following the absorption at 517 nm in a visible spectrophotometer. In the presence of any free radical scavenger, this odd electron pairs up and causes the diminishing of absorption band which is proportional to the number of electrons taken up. The activity was studied at different concentrations for each compound. […] Resulting from a color change from purple to yellow the absorbance decreased when the antioxidant molecule can quench DPPH free radical through donation of hydrogen atom or by electron donating to form a stable DPPH molecule.

[14] = superoxide radical scavenging assay (NBT, xanthine-xanthine oxidase system); format: biochemical; conditions: NBT reduction, pH 7.8, 560 nm, three replicates
Protocol: Superoxide radical scavenging activity was measured as described by Kovala-Demertzi et al., (2004). The assay is based on the reduction of nitroblue tetrazolium (NBT) by superoxide ions generated by the xanthine-xanthine oxidase system (X–XO). The reaction system contained 0.2 mM xanthine and 0.6 mM NBT in 0.1 M phosphate buffer, pH 7.8. The tested compounds were dissolved in methanol. The reaction was started by addition of XO (0.07 U mL^−1), an activity which allowed to yield the absorbance change between 0.03 and 0.04 per minute, at 560 nm. The extent of NBT reduction was followed spectrophotometrically, by measuring the increase of the absorbance at 560 nm. All the experiments were replicated three times. The IC50 of each compound was defined as the concentration which inhibited 50% of the NBT reduction by O2 ^•− produced in the X–XO system.
Superoxide anion radical is normally initially formed, and its effects can be magnified because it produces other kinds of free radicals and oxidizing agents. The enzymatic superoxide anion radical was generated by the xanthine/xanthine oxidase reaction system. The production of superoxide was estimated by the nitroblue tetrazolium method. […] Differently, in the m-position, methoxy and hydroxyl groups act as an electron-withdrawing properties, ([…]), which are possible for providing a destabilizing effect.

[15] = Staphylococcus aureus, NCIM5021

Compound: CC(=O)N(C(=O)c1cc(F)ccc1F)c1ccc(N=Cc2cc3ccccc3o2)cc1 [Compound 5a, N-acetyl-N-(4-((benzofuran-2-ylmethylene)amino)phenyl)-2,5-difluorobenzamide]
- zone of inhibition at 100 µg/mL (A. niger [1]): 11 mm
- zone of inhibition at 100 µg/mL [2]: 10.4 mm
- zone of inhibition at 100 µg/mL [3]: 16 mm
- zone of inhibition at 100 µg/mL [4]: 12 mm
- zone of inhibition at 100 µg/mL [5]: 14 mm
- zone of inhibition at 100 µg/mL [6]: 11 mm
- MIC (A. niger [7]; Aspergillus niger): 15 µg/mL (≈ 35.9 µM)
- MIC [8]: 15 µg/mL (≈ 35.9 µM)
- MIC [9]: 12 µg/mL (≈ 28.7 µM)
- MIC [10]: 25 µg/mL (≈ 59.8 µM)
- MIC [11]: 25 µg/mL (≈ 59.8 µM)
- MIC [12, 15]: 12 µg/mL (≈ 28.7 µM)
- IC50 DPPH [13]: 97.5 ± 0.37 µg/mL (≈ 233 µM)
- IC50 Superoxide [14]: 91.3 ± 0.26 µg/mL (≈ 218 µM)
- melting point: 197 °C

Compound: CC(=O)N(C(=O)c1ccccc1)c1ccc(N=Cc2cc3ccccc3o2)cc1 [Compound 5c, N-acetyl-N -(4-((benzofuran-2-ylmethylene)amino)phenyl)benzamide]
- zone of inhibition at 100 µg/mL (A. niger [1]): 9 mm
- zone of inhibition at 100 µg/mL [2]: 15 mm
- zone of inhibition at 100 µg/mL [3]: 10 mm
- zone of inhibition at 100 µg/mL [4]: 15 mm
- zone of inhibition at 100 µg/mL [5]: 12 mm
- zone of inhibition at 100 µg/mL [6]: 11 mm
- MIC (A. niger [7]; Aspergillus niger): 40 µg/mL (≈ 105 µM)
- MIC [8]: 40 µg/mL (≈ 105 µM)
- MIC [9]: 35 µg/mL (≈ 91.5 µM)
- MIC [10]: 50 µg/mL (≈ 131 µM)
- MIC [11]: 50 µg/mL (≈ 131 µM)
- MIC [12, 15]: 35 µg/mL (≈ 91.5 µM)
- IC50 DPPH [13]: 61.7 ± 0.55 µg/mL (≈ 161 µM)
- IC50 Superoxide [14]: 60.9 ± 0.28 µg/mL (≈ 159 µM)
- melting point: 192 °C

Compound: CC(=O)N(C(=O)c1cc(F)c(F)c(F)c1)c1ccc(N=Cc2cc3ccccc3o2)cc1 [Compound 5g, N-acetyl-N-(4-(benzofuran-2-ylmethyleneamino)phenyl)-3,4,5-trifluorobenzamide]
- zone of inhibition at 100 µg/mL (A. niger [1]): 13.2 mm
- zone of inhibition at 100 µg/mL [2]: 14 mm
- zone of inhibition at 100 µg/mL [3]: 13.5 mm
- zone of inhibition at 100 µg/mL [4]: 12.7 mm
- zone of inhibition at 100 µg/mL [5]: 14 mm
- zone of inhibition at 100 µg/mL [6]: 13.6 mm
- MIC (A. niger [7]; A. niger, dilution method, average of three replicates): 10 µg/mL (≈ 22.9 µM)
- MIC (A. niger [7]; Aspergillus niger): 10 µg/mL (≈ 22.9 µM)
- MIC [8]: 15 µg/mL (≈ 34.4 µM)
- MIC [9]: 10 µg/mL (≈ 22.9 µM)
- MIC [10]: 12 µg/mL (≈ 27.5 µM)
- MIC [11]: 10 µg/mL (≈ 22.9 µM)
- MIC ([12]; S. aureus, dilution method, average of three replicates): 9.8 µg/mL (≈ 22.5 µM)
- MIC [12, 15]: 9.8 µg/mL (≈ 22.5 µM)
- IC50 DPPH [13]: > 100 µg/mL and >125 µg/mL
- IC50 Superoxide [14]: 123 ± 0.44 µg/mL (≈ 282 µM)
- melting point: 190 °C

Compound: CC(=O)N(C(=O)c1cc(F)cc(F)c1)c1ccc(N=Cc2cc3ccccc3o2)cc1 [Compound 5h, N-acetyl-N-(4-((benzofuran-2-ylmethylene)amino)phenyl)-3,5-difluorobenzamide]
- zone of inhibition at 100 µg/mL (A. niger [1]): 11.4 mm
- zone of inhibition at 100 µg/mL [2]: 10.9 mm
- zone of inhibition at 100 µg/mL [3]: 12 mm
- zone of inhibition at 100 µg/mL [4]: 11 mm
- zone of inhibition at 100 µg/mL [5]: 17 mm
- zone of inhibition at 100 µg/mL [6]: 14 mm
- MIC (A. niger [7]; Aspergillus niger): 10 µg/mL (≈ 23.9 µM)
- MIC [8]: 15 µg/mL (≈ 35.9 µM)
- MIC [9]: 12.4 µg/mL (≈ 29.6 µM)
- MIC [10]: 25 µg/mL (≈ 59.8 µM)
- MIC [11]: 25 µg/mL (≈ 59.8 µM)
- MIC [12, 15]: 12.4 µg/mL (≈ 29.6 µM)
- IC50 DPPH [13]: > 100 µg/mL and 100 ± 0.19 µg/mL
- IC50 Superoxide [14]: 96.1 ± 0.31 µg/mL (≈ 230 µM)
- melting point: 187 °C

Compound: COc1ccc(C(=O)N(C(C)=O)c2ccc(N=Cc3cc4ccccc4o3)cc2)cc1 [Compound 5i, N-acetyl-N-(4-(benzofuran-2-ylmethyleneamino)phenyl)-4-methoxybenzamide]
- zone of inhibition at 100 µg/mL (A. niger [1]): 10 mm
- zone of inhibition at 100 µg/mL [2]: 14 mm
- zone of inhibition at 100 µg/mL [3]: 10 mm
- zone of inhibition at 100 µg/mL [4]: 11 mm
- zone of inhibition at 100 µg/mL [5]: 13 mm
- zone of inhibition at 100 µg/mL [6]: 14 mm
- MIC (A. niger [7]; Aspergillus niger): 35 µg/mL (≈ 84.9 µM)
- MIC [8]: 30 µg/mL (≈ 72.7 µM)
- MIC [9]: 50 µg/mL (≈ 121 µM)
- MIC [10]: 30 µg/mL (≈ 72.7 µM)
- MIC [11]: 35 µg/mL (≈ 84.9 µM)
- MIC [12, 15]: 40 µg/mL (≈ 97 µM)
- IC50 DPPH [13]: 18.5 ± 0.17 µg/mL (≈ 44.9 µM)
- IC50 Superoxide [14]: 14.3 ± 0.23 µg/mL (≈ 34.7 µM)
- melting point: 205 °C

Compound: CC(=O)N(C(=O)c1ccc(O)cc1)c1ccc(N=Cc2cc3ccccc3o2)cc1 [Compound 5j, N-acetyl-N-(4-((benzofuran-2-ylmethylene)amino)phenyl)-4-hydroxybenzamide]
- zone of inhibition at 100 µg/mL (A. niger [1]): 9 mm
- zone of inhibition at 100 µg/mL [2]: 15 mm
- zone of inhibition at 100 µg/mL [3]: 9 mm
- zone of inhibition at 100 µg/mL [4]: 11 mm
- zone of inhibition at 100 µg/mL [5]: 13 mm
- zone of inhibition at 100 µg/mL [6]: 12 mm
- MIC (A. niger [7]; Aspergillus niger): 40 µg/mL (≈ 100 µM)
- MIC [8]: 40 µg/mL (≈ 100 µM)
- MIC [9]: 35 µg/mL (≈ 87.8 µM)
- MIC [10]: 50 µg/mL (≈ 125 µM)
- MIC [11]: 50 µg/mL (≈ 125 µM)
- MIC [12, 15]: 35 µg/mL (≈ 87.8 µM)
- IC50 DPPH [13]: 15.3 ± 0.11 µg/mL (≈ 38.4 µM)
- IC50 Superoxide [14]: 11.6 ± 0.04 µg/mL (≈ 29.1 µM)
- melting point: 213 °C
